System: 817829-284-R-J1-PDC complex spheroids, viability
Experiment: Anticancer human tumor 817829-284-R-J1-PDC patient-derived colon adenocarcinoma cell line growth inhibition [GQUAD]
Conditions: for IC50: curve of first compound; for viability, T/C: stronger effect = lower value
Summary of the method: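 Tumor cells were grown as complex spheroids with HUVEC endothelial cells and mesenchymal stem cells as stroma. G-quadruplex stabilizers were combined with targeted agents over half-log dilutions from near the clinical Cmax, or from 10 microM.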

[1] = second compound 0.0316 µM, first compound 0.0316 µM
[2] = second compound 0.0316 µM, first compound 0.1 µM
[3] = second compound 0.0316 µM, first compound 0.316 µM
[4] = second compound 0.0316 µM, first compound 1 µM
[5] = second compound 0.0316 µM, first compound 3.16 µM
[6] = second compound 0.0316 µM, first compound 10 µM
[7] = second compound 0.1 µM, first compound 0.0316 µM
[8] = second compound 0.1 µM, first compound 0.1 µM
[9] = second compound 0.1 µM, first compound 0.316 µM
[10] = second compound 0.1 µM, first compound 1 µM
[11] = second compound 0.1 µM, first compound 3.16 µM
[12] = second compound 0.1 µM, first compound 10 µM
[13] = second compound 0.316 µM, first compound 0.0316 µM
[14] = second compound 0.316 µM, first compound 0.1 µM
[15] = second compound 0.316 µM, first compound 0.316 µM
[16] = second compound 0.316 µM, first compound 1 µM
[17] = second compound 0.316 µM, first compound 3.16 µM
[18] = second compound 0.316 µM, first compound 10 µM
[19] = second compound 1 µM, first compound 0.0316 µM
[20] = second compound 1 µM, first compound 0.1 µM
[21] = second compound 1 µM, first compound 0.316 µM
[22] = second compound 1 µM, first compound 1 µM
[23] = second compound 1 µM, first compound 3.16 µM
[24] = second compound 1 µM, first compound 10 µM
[25] = second compound 3.16 µM, first compound 0.0316 µM
[26] = second compound 3.16 µM, first compound 0.1 µM
[27] = second compound 3.16 µM, first compound 0.316 µM
[28] = second compound 3.16 µM, first compound 1 µM
[29] = second compound 3.16 µM, first compound 3.16 µM
[30] = second compound 3.16 µM, first compound 10 µM
[31] = second compound 10 µM, first compound 0.0316 µM
[32] = second compound 10 µM, first compound 0.1 µM
[33] = second compound 10 µM, first compound 0.316 µM
[34] = second compound 10 µM, first compound 1 µM
[35] = second compound 10 µM, first compound 3.16 µM
[36] = second compound 10 µM, first compound 10 µM
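Also: spheroids exposed to agents for 7 days before readout.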
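For viability, T/C in this document: percent viability relative to DMSO vehicle control taken as 100%.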

Question: For `CC1COCCN1c1cc(C2(S(C)(=N)=O)CC2)nc(-c2ccnc3[nH]ccc23)n1` (stereo not drawn) + Cc1cnc(CNC(=O)c2c(=O)c3ccc(N4CCCN(C)CC4)nc3n3c2sc2ccccc23)cn1, which IC50 (second compound 0.0316 µM) is on record?
Answer: 200 nM

Question: What about the IC50 (second compound 0.1 µM) of the same compound?
Answer: < 31.6 nM

Question: What about the IC50 (second compound 0.316 µM) of the same compound?
Answer: < 31.6 nM

Question: What about the IC50 (second compound 1 µM) of the same compound?
Answer: < 31.6 nM

Question: And the IC50 (second compound 3.16 µM)?
Answer: < 31.6 nM

Question: What about the IC50 (second compound 10 µM) of the same compound?
Answer: < 31.6 nM

Question: What about the viability, T/C [1] of the same compound?
Answer: 82.8%

Question: What about the viability, T/C [2] of the same compound?
Answer: 71.1%

Question: And the viability, T/C [3]?
Answer: 36.1%

Question: And the viability, T/C [4]?
Answer: 15.2%

Question: What about the viability, T/C [5] of the same compound?
Answer: 12.5%

Question: And the viability, T/C [6]?
Answer: 10.4%

Question: And the viability, T/C [7]?
Answer: 47.3%

Question: What about the viability, T/C [8] of the same compound?
Answer: 37.9%

Question: What about the viability, T/C [9] of the same compound?
Answer: 24.1%

Question: What about the viability, T/C [10] of the same compound?
Answer: 14.4%

Question: What about the viability, T/C [11] of the same compound?
Answer: 11.4%

Question: And the viability, T/C [12]?
Answer: 8.15%

Question: And the viability, T/C [13]?
Answer: 29.1%

Question: What about the viability, T/C [14] of the same compound?
Answer: 29.6%

Question: What about the viability, T/C [15] of the same compound?
Answer: 22.2%

Question: What about the viability, T/C [16] of the same compound?
Answer: 16.5%

Question: What about the viability, T/C [17] of the same compound?
Answer: 12.6%

Question: And the viability, T/C [18]?
Answer: 9.19%

Question: What about the viability, T/C [19] of the same compound?
Answer: 29.2%

Question: And the viability, T/C [20]?
Answer: 27.2%

Question: What about the viability, T/C [21] of the same compound?
Answer: 21.3%

Question: What about the viability, T/C [22] of the same compound?
Answer: 17.1%

Question: And the viability, T/C [23]?
Answer: 10.8%

Question: And the viability, T/C [24]?
Answer: 8.91%

Question: And the viability, T/C [25]?
Answer: 21.5%

Question: What about the viability, T/C [26] of the same compound?
Answer: 23.8%

Question: And the viability, T/C [27]?
Answer: 22.3%

Question: And the viability, T/C [28]?
Answer: 15.2%

Question: And the viability, T/C [29]?
Answer: 12.8%

Question: And the viability, T/C [30]?
Answer: 8.2%

Question: And the viability, T/C [31]?
Answer: 0.17%

Question: What about the viability, T/C [32] of the same compound?
Answer: 0.16%

Question: And the viability, T/C [33]?
Answer: 0.21%

Question: What about the viability, T/C [34] of the same compound?
Answer: 0.24%

Question: And the viability, T/C [35]?
Answer: 0.23%

Question: And the viability, T/C [36]?
Answer: 0.24%

Question: What does the source list for `CC1COCCN1c1cc(C2(O)CC3CCC(C2)O3)c2cnn(-c3ccn[nH]3)c2n1` (stereo not drawn) + CN(C)c1ccc(Nc2c3ccc(NC(=O)CCN4CCCC4)cc3nc3cc(NC(=O)CCN4CCCC4)ccc23)cc1?
Answer: IC50 (second compound 0.0316 µM): < 31.6 nM; IC50 (second compound 0.1 µM): < 31.6 nM; IC50 (second compound 0.316 µM): < 31.6 nM; IC50 (second compound 1 µM): < 31.6 nM; IC50 (second compound 3.16 µM): < 31.6 nM; IC50 (second compound 10 µM): < 31.6 nM; viability, T/C [1]: 30%; viability, T/C [2]: 13.9%; viability, T/C [3]: 8.88%; viability, T/C [4]: 7.25%; viability, T/C [5]: 6.14%; viability, T/C [6]: 5.19%; viability, T/C [7]: 31.5%; viability, T/C [8]: 15.1%; viability, T/C [9]: 8.31%; viability, T/C [10]: 6.53%; viability, T/C [11]: 6.56%; viability, T/C [12]: 4.3%; viability, T/C [13]: 29.9%; viability, T/C [14]: 14.4%; viability, T/C [15]: 10.4%; viability, T/C [16]: 7.63%; viability, T/C [17]: 5.34%; viability, T/C [18]: 4.95%; viability, T/C [19]: 29.1%; viability, T/C [20]: 16.7%; viability, T/C [21]: 9.05%; viability, T/C [22]: 6.94%; viability, T/C [23]: 7.14%; viability, T/C [24]: 4.24%; viability, T/C [25]: 28.9%; viability, T/C [26]: 13.8%; viability, T/C [27]: 9.17%; viability, T/C [28]: 7.04%; viability, T/C [29]: 7.35%; viability, T/C [30]: 4.31%; viability, T/C [31]: 20.2%; viability, T/C [32]: 13.6%; viability, T/C [33]: 7.79%; viability, T/C [34]: 6.03%; viability, T/C [35]: 5.19%; viability, T/C [36]: 3.21%

Question: Which results are given for `Cn1ncnc1[C@H]1c2n[nH]c(=O)c3cc(F)cc(c23)N[C@@H]1c1ccc(F)cc1` + CN(C)c1ccc(Nc2c3ccc(NC(=O)CCN4CCCC4)cc3nc3cc(NC(=O)CCN4CCCC4)ccc23)cc1?
Answer: IC50 (second compound 0.0316 µM): > 316 nM; IC50 (second compound 0.1 µM): > 316 nM; IC50 (second compound 0.316 µM): > 316 nM; IC50 (second compound 1 µM): > 316 nM; IC50 (second compound 3.16 µM): > 316 nM; IC50 (second compound 10 µM): > 316 nM; viability, T/C (second compound 0.0316 µM, first compound 0.000999 µM): 91.3%; viability, T/C (second compound 0.0316 µM, first compound 0.00316 µM): 112%; viability, T/C (second compound 0.0316 µM, first compound 0.00999 µM): 112%; viability, T/C [1]: 95%; viability, T/C (second compound 0.0316 µM, first compound 0.0999 µM): 85.1%; viability, T/C [3]: 68.9%; viability, T/C (second compound 0.1 µM, first compound 0.000999 µM): 95.6%; viability, T/C (second compound 0.1 µM, first compound 0.00316 µM): 105%; viability, T/C (second compound 0.1 µM, first compound 0.00999 µM): 95.4%; viability, T/C [7]: 94%; viability, T/C (second compound 0.1 µM, first compound 0.0999 µM): 86.2%; viability, T/C [9]: 80%; viability, T/C (second compound 0.316 µM, first compound 0.000999 µM): 95.8%; viability, T/C (second compound 0.316 µM, first compound 0.00316 µM): 104%; viability, T/C (second compound 0.316 µM, first compound 0.00999 µM): 95.8%; viability, T/C [13]: 101%; viability, T/C (second compound 0.316 µM, first compound 0.0999 µM): 97.7%; viability, T/C [15]: 78.6%; viability, T/C (second compound 1 µM, first compound 0.000999 µM): 90%; viability, T/C (second compound 1 µM, first compound 0.00316 µM): 99%; viability, T/C (second compound 1 µM, first compound 0.00999 µM): 99.6%; viability, T/C [19]: 92.6%; viability, T/C (second compound 1 µM, first compound 0.0999 µM): 90.4%; viability, T/C [21]: 71.8%; viability, T/C (second compound 3.16 µM, first compound 0.000999 µM): 92.2%; viability, T/C (second compound 3.16 µM, first compound 0.00316 µM): 99.7%; viability, T/C (second compound 3.16 µM, first compound 0.00999 µM): 90.6%; viability, T/C [25]: 89.2%; viability, T/C (second compound 3.16 µM, first compound 0.0999 µM): 104%; viability, T/C [27]: 79.9%; viability, T/C (second compound 10 µM, first compound 0.000999 µM): 97.2%; viability, T/C (second compound 10 µM, first compound 0.00316 µM): 97.3%; viability, T/C (second compound 10 µM, first compound 0.00999 µM): 89.6%; viability, T/C [31]: 81.2%; viability, T/C (second compound 10 µM, first compound 0.0999 µM): 79.1%; viability, T/C [33]: 63.4%

Question: What does the source list for `Cc1cccc(N(C)C(=O)C2C(O)CCN2c2nc(C)cc(C(F)(F)F)c2C#N)c1` (stereo not drawn) + Cc1[nH]c2ccc(F)cc2c1-c1nc2c3cccnc3c3ncccc3c2[nH]1?
Answer: IC50 (second compound 0.0316 µM): > 10000 nM; IC50 (second compound 0.1 µM): > 10000 nM; IC50 (second compound 0.316 µM): > 10000 nM; IC50 (second compound 1 µM): > 10000 nM; IC50 (second compound 3.16 µM): > 10000 nM; IC50 (second compound 10 µM): > 10000 nM; viability, T/C [1]: 103%; viability, T/C [2]: 86.2%; viability, T/C [3]: 99.9%; viability, T/C [4]: 78%; viability, T/C [5]: 97.6%; viability, T/C [6]: 95.3%; viability, T/C [7]: 78.9%; viability, T/C [8]: 97.7%; viability, T/C [9]: 89.7%; viability, T/C [10]: 102%; viability, T/C [11]: 101%; viability, T/C [12]: 105%; viability, T/C [13]: 90.9%; viability, T/C [14]: 116%; viability, T/C [15]: 99.3%; viability, T/C [16]: 115%; viability, T/C [17]: 111%; viability, T/C [18]: 100%; viability, T/C [19]: 96.6%; viability, T/C [20]: 103%; viability, T/C [21]: 106%; viability, T/C [22]: 98.7%; viability, T/C [23]: 100%; viability, T/C [24]: 90%; viability, T/C [25]: 94.9%; viability, T/C [26]: 96.1%; viability, T/C [27]: 82.5%; viability, T/C [28]: 99.2%; viability, T/C [29]: 98.2%; viability, T/C [30]: 96.7%; viability, T/C [31]: 83.3%; viability, T/C [32]: 96.4%; viability, T/C [33]: 96.4%; viability, T/C [34]: 55.3%; viability, T/C [35]: 82.6%; viability, T/C [36]: 63.2%

From PubChem BioAssay AID2060503 (Molecular Pharmacology Branch, DTP, NCI, 2025)
